{"source": "patent US11484529B2", "about": "“Desmethylanethole trithione derivatives for the treatment of diseases linked to mitochondrial reactive oxygen species (ROS) production” (OP2 Drugs, priority 2017, dated 2022)", "key": {"[1]": {"system": "isolated pancreatic islets from mice", "test": "Glucose-stimulated insulin secretion (GSIS) in isolated pancreatic islets", "type": "cell-based, mouse", "conditions": "AOL 10 and 20 μM, 1 hour", "protocol": "Pancreatic islets were isolated using the collagenase digestion method. Briefly, pancreas was inflated with Hanks solution containing 0.33 mg/mL of collagenase (Sigma-Aldrich), 5.6 mM glucose and 1% bovine serum albumin, pH 7.35, removed and kept at 37° C. for 6-9 minutes. After tissue digestion and exocrine removal by three consecutive washes, the islets were manually collected, under a binocular magnifier. Islets were left recovering from digestion by culturing for 20-24 hours in RPMI-1640 medium containing 11 mM glucose (Invitrogen, CA, USA) and supplemented with 2 mM glutamine, 200 IU/mL penicillin, 200 μg/mL streptomycin and 8% fetal bovine serum stripped with charcoal-dextran (Invitrogen).\nFor each static GSIS experiment, islets from two mice were first incubated for 2 hours at 37° C. in 3 mL Krebs-bicarbonate buffer solution (in mM): […] and 3 glucose, equilibrated with a mixture of 95% 02:5% C02, pH 7.4. […] Insulin secretion in each well was calculated as ng of insulin per islet and per hour of incubation, and then expressed as percentage of insulin secretion in 11 mM glucose vehicle group, which was considered 100%."}, "[2]": {"system": "isolated perfused rat heart", "test": "Global ischemia-reperfusion of isolated perfused rat heart (Langendorff)", "conditions": "10 μM AOL pretreatment, 30 min ischemia", "protocol": "The consequences of 30 minutes' global ischemia followed by 120 minutes' reperfusion (FIG. 11) on contractility and tissue viability were studied on isolated perfused rat heart pretreated or not (control vehicle) with 10 μM AOL.\nAll procedures conformed to the UK Animals (Scientific Procedures) Act 1986 and the Guide for the Care and Use of Laboratory Animals published by the National Institutes of Health (NIH Publication No. 85-23. revised 1996). Male Wistar rats (250-300 g) were anesthetized by 3% isoflurane, heparinized and euthanized by a lethal IP injection of pentobarbital (130 mg/kg). […] Langendorff heart perfusions were performed (Garlid et al., 2006. Am. J. Physiol. Heart Circ. Physiol. 291(1):H152-60) and contractility was assessed by continuous measurement of the rate pressure product (RPP) thanks to a balloon placed in the left ventricle and connected to a pressure transducer. […]\nAt the end of the reperfusion period, hearts were stained with triphenyltetrazolium chloride (TTC): hearts were perfused for 7 minutes at 13 mL/min with a 12% (w/v) TTC solution in order to get a 1% final concentration in the heart. […] The surface of the necrotic and at-risk areas of each side were determined on each photography by planimetry (AlphaEase v5.5), and infarct size was expressed as a percentage of the total cross-sectional area of the heart, since total heart was subjected to ischemia."}}, "data": [{"smiles": "COc1ccc(-c2cc(=S)ss2)cc1", "note": "[AOL, 5-(4-methoxyphenyl)-3H-1,2-dithiole-3-thione]", "values": [{"measurement": "GSIS increase as compared to the 11 mM glucose vehicle group", "setting": "[1]", "result": "65-75%"}, {"measurement": "infarcted tissue rescued (TTC staining)", "setting": "[2]; 120 min reperfusion", "result": "about 50%"}, {"measurement": "heart contractility (RPP) relative to control hearts", "setting": "[2]; after 2 hours of reperfusion", "result": "about three times higher than control hearts"}]}]}
